Experimental findings from BindingDB's records for doi:10.7270/Q2C53J9J (University of Pittsburgh, 2010) are described below.

In this experiment the target is T1, Glucose-6-phosphate 1-dehydrogenase (Leuconostoc mesenteroides, UniProt P11411).
T1 sequence (P11411 whole entry): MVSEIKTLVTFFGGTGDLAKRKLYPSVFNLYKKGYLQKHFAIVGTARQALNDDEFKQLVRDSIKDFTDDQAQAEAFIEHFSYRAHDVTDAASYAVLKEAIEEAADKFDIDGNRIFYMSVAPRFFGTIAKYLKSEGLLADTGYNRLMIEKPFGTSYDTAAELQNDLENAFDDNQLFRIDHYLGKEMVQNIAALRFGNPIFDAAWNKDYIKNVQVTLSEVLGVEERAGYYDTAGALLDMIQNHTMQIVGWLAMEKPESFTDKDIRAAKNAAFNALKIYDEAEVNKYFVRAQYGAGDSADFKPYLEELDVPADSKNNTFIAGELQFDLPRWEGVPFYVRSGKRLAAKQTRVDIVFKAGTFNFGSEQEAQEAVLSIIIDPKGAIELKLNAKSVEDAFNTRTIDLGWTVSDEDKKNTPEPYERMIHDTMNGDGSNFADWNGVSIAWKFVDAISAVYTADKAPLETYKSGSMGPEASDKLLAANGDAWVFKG
Nature of the experiment: Leuconostoc G6PDH inhibition potency, SAR follow-up, counter-screen for TbHK1 inhibitor project, biochemical, analogue series, IC50 (AID 2579). On the technique in general: The purpose of a counterscreen is to sort out artefacts and off-target activity.
The molecule `O=c1ccsn1-c1ccccc1` [2-Phenyl-isothiazol-3-one] came in with an IC50 of over 25 µM.

In turn, `COc1ccc(C(=O)Nc2cc(C(F)(F)F)ccc2C(=O)O)cc1` [2-[(4-methoxybenzoyl)amino]-4-(trifluoromethyl)benzoic acid] yielded an IC50 of over 25 µM.

With `COc1ccc(C(=O)NC(C(=O)O)c2ccccc2)cc1` (configuration not stated) [2-[(4-methoxyphenyl)carbonylamino]-2-phenyl-ethanoic acid], the IC50 is over 25 µM.

The molecule `COc1ccc(C(=O)Nc2cc(C)ccc2C(=O)O)cc1` [2-[(4-methoxyphenyl)carbonylamino]-4-methyl-benzoic acid] registered an IC50 of over 25 µM.

In the case of `O=C(O)c1ccc(Cl)cc1NC(=O)c1coc2ccccc12` [2-[[3-benzofuranyl(oxo)methyl]amino]-4-chlorobenzoic acid], the IC50 was over 25 µM.

In turn, `O=C(Nc1cc(Cl)ccc1C(=O)O)c1ccccc1` [2-benzamido-4-chlorobenzoic acid] had an IC50 of over 25 µM.

Turning to `O=c1c2ccccc2sn1-c1ccccc1` [2-phenyl-1,2-benzothiazol-3-one], the IC50 is over 25 µM.

As to `COc1ccc(C(=O)NC(CC(=O)O)c2cccc(Cl)c2)cc1` (configuration not stated) [3-(3-chlorophenyl)-3-[(4-methoxybenzoyl)amino]propanoic acid], the IC50 was over 25 µM.

As for `CN(C)S(=O)(=O)c1cccc(-n2sc3ccccc3c2=O)c1` [3-(3-keto-1,2-benzothiazol-2-yl)-N,N-dimethyl-benzenesulfonamide], the IC50 is over 25 µM.

`O=C(CCn1sc2ccccc2c1=O)Nc1ccccc1` [3-(3-oxidanylidene-1,2-benzothiazol-2-yl)-N-phenyl-propanamide] displayed an IC50 of over 25 µM.

Regarding `COc1ccc(C(=O)NC(CC(=O)O)c2ccc(Cl)cc2)cc1` (configuration not stated) [3-(4-chlorophenyl)-3-[(4-methoxyphenyl)carbonylamino]propanoic acid], the IC50 was over 25 µM.

The molecule `COc1ccc(C(=O)Nc2cnccc2C(=O)O)cc1` [3-[(4-methoxybenzoyl)amino]pyridine-4-carboxylic acid] came in with an IC50 of over 25 µM.

Molecule `CCOC(=O)c1ccncc1NC(=O)c1ccc(OC)cc1` [3-[[(4-methoxyphenyl)-oxomethyl]amino]-4-pyridinecarboxylic acid ethyl ester] had an IC50 of over 25 µM.

In turn, `N#Cc1ccc2c(=O)n(-c3ccccc3)sc2c1` [3-oxidanylidene-2-phenyl-1,2-benzothiazole-6-carbonitrile] gave an IC50 of over 25 µM.

With `CCc1ccc(C(=O)Nc2cc(Br)ccc2C(=O)O)cc1` [4-bromanyl-2-[(4-ethylphenyl)carbonylamino]benzoic acid], the IC50 was over 25 µM.

Consider `O=c1c2c(Br)cccc2sn1-c1ccccc1` [4-bromanyl-2-phenyl-1,2-benzothiazol-3-one], for which the IC50 was over 25 µM.

In the case of `O=c1c(Br)csn1-c1ccc(Br)cc1` [4-bromo-2-(4-bromophenyl)-3-isothiazolone], the IC50 is over 25 µM.

In turn, `COc1ccc(C(=O)Nc2cc(Br)ccc2C(=O)O)cc1` [4-bromo-2-[[(4-methoxyphenyl)-oxomethyl]amino]benzoic acid] showed a 50% inhibitory concentration (IC50) of over 25 µM.

The molecule `O=C(Nc1cc(Cl)ccc1C(=O)O)c1ccoc1` [4-chloranyl-2-(furan-3-ylcarbonylamino)benzoic acid] displayed an IC50 of over 25 µM.

Regarding `O=C(Nc1cc(Cl)ccc1C(=O)O)c1ccc(Cl)cc1` [4-chloranyl-2-[(4-chlorophenyl)carbonylamino]benzoic acid], the IC50 was over 25 µM.

Regarding `COc1ccc(C(=O)Nc2cc(Cl)ccc2C(=O)O)cc1` [4-chloranyl-2-[(4-methoxyphenyl)carbonylamino]benzoic acid], the IC50 was over 25 µM.

`O=C(Nc1cc(Cl)ccc1C(=O)O)c1ccc(-c2ccccc2)cc1` [4-chloranyl-2-[(4-phenylphenyl)carbonylamino]benzoic acid] returned an IC50 of over 25 µM.

As to `COc1ccc(C(=O)Nc2cc(Cl)ccc2C(=O)O)cn1` [4-chloranyl-2-[(6-methoxypyridin-3-yl)carbonylamino]benzoic acid], the IC50 is over 25 µM.

Molecule `CC(C)Cc1ccc(C(=O)Nc2cc(Cl)ccc2C(=O)O)cc1` [4-chloranyl-2-[[4-(2-methylpropyl)phenyl]carbonylamino]benzoic acid] had an IC50 of over 25 µM.

`O=C(Nc1cc(Cl)ccc1C(=O)O)c1ccc(Cc2ccccc2)cc1` [4-chloranyl-2-[[4-(phenylmethyl)phenyl]carbonylamino]benzoic acid]: the IC50 is over 25 µM.

Take `O=C(Nc1cc(Cl)ccc1C(=O)O)c1ccc(C(F)(F)F)cc1` [4-chloranyl-2-[[4-(trifluoromethyl)phenyl]carbonylamino]benzoic acid]: the IC50 was over 25 µM.

Regarding `CCCCCCC(=O)Nc1cc(Cl)ccc1C(=O)O` [4-chloro-2-(1-oxoheptylamino)benzoic acid], the IC50 was over 25 µM.

In turn, `CCCCCC(=O)Nc1cc(Cl)ccc1C(=O)O` [4-chloro-2-(1-oxohexylamino)benzoic acid] had an IC50 of over 25 µM.

Consider `COc1ccc(Nc2cc(Cl)ccc2C(=O)O)cc1` [4-chloro-2-(4-methoxyanilino)benzoic acid], for which the IC50 is over 25 µM.

As for `COc1ccc2c(c1)CN(c1cc(Cl)ccc1C(=O)O)C2=O` [4-chloro-2-(6-methoxy-3-oxo-1H-isoindol-2-yl)benzoic acid], the IC50 was over 25 µM.

Molecule `COc1ccc(C(=O)Nc2cc(Cl)ccc2C(=O)O)cc1OC` [4-chloro-2-[(3,4-dimethoxybenzoyl)amino]benzoic acid] returned an IC50 of over 25 µM.

Consider `Cc1ccc(C(=O)Nc2cc(Cl)ccc2C(=O)O)cc1` [4-chloro-2-[(4-methylbenzoyl)amino]benzoic acid], for which the IC50 was over 25 µM.

In the case of `COc1cccc(CC(=O)Nc2cc(Cl)ccc2C(=O)O)c1` [4-chloro-2-[[2-(3-methoxyphenyl)-1-oxoethyl]amino]benzoic acid], the IC50 is over 25 µM.

For `O=C(Nc1cc(Cl)ccc1C(=O)O)c1ccc2ccccc2c1` [4-chloro-2-[[2-naphthalenyl(oxo)methyl]amino]benzoic acid], the IC50 was over 25 µM.

`Cc1ccc(C(=O)Nc2cc(Cl)ccc2C(=O)O)c(C)c1` [4-chloro-2-[[(2,4-dimethylphenyl)-oxomethyl]amino]benzoic acid]: the IC50 was over 25 µM.

In turn, `COC(=O)c1ccc(Cl)cc1NC(=O)c1ccccc1OC` [4-chloro-2-[[(2-methoxyphenyl)-oxomethyl]amino]benzoic acid methyl ester] returned an IC50 of over 25 µM.

Molecule `Cc1cccc(C(=O)Nc2cc(Cl)ccc2C(=O)O)c1` [4-chloro-2-[[(3-methylphenyl)-oxomethyl]amino]benzoic acid] had an IC50 of over 25 µM.

For the molecule `CCOc1ccc(C(=O)Nc2cc(Cl)ccc2C(=O)O)cc1` [4-chloro-2-[[(4-ethoxyphenyl)-oxomethyl]amino]benzoic acid], the IC50 is over 25 µM.

In turn, `CCc1ccc(C(=O)Nc2cc(Cl)ccc2C(=O)OC)cc1` [4-chloro-2-[[(4-ethylphenyl)-oxomethyl]amino]benzoic acid methyl ester] registered an IC50 of over 25 µM.

For the molecule `O=C(Nc1cc(Cl)ccc1C(=O)O)c1ccncc1` [4-chloro-2-[[oxo(pyridin-4-yl)methyl]amino]benzoic acid], the IC50 was over 25 µM.

Molecule `O=C1CCN(C(=O)Nc2cc(Cl)ccc2C(=O)O)CC1` [4-chloro-2-[[oxo-(4-oxo-1-piperidinyl)methyl]amino]benzoic acid] registered an IC50 of over 25 µM.

As for `CC(C)c1ccc(C(=O)Nc2cc(Cl)ccc2C(=O)O)cc1` [4-chloro-2-[[oxo-(4-propan-2-ylphenyl)methyl]amino]benzoic acid], the IC50 is over 25 µM.

`COc1ccc(C(=O)Nc2cc(C(=O)O)ccc2Cl)cc1` [4-chloro-3-[(4-methoxybenzoyl)amino]benzoic acid]: the IC50 is over 25 µM.

The molecule `COc1ccc(C(=O)Nc2cc(I)ccc2C(=O)O)cc1` [4-iodanyl-2-[(4-methoxyphenyl)carbonylamino]benzoic acid] returned an IC50 of over 25 µM.

In turn, `COc1ccc(C(=O)Nc2ccccc2-c2nn[nH]n2)cc1` [4-methoxy-N-[2-(2H-1,2,3,4-tetrazol-5-yl)phenyl]benzamide] returned an IC50 of over 25 µM.

In turn, `O=c1c2cc(F)ccc2sn1-c1ccccc1` [5-fluoranyl-2-phenyl-1,2-benzothiazol-3-one] had an IC50 of over 25 µM.

With `Cc1ccccc1-n1sc2cc(F)ccc2c1=O` [6-fluoranyl-2-(2-methylphenyl)-1,2-benzothiazol-3-one], the IC50 was over 25 µM.

`O=c1c2ccc(F)cc2sn1Cc1ccccc1` [6-fluoro-2-(phenylmethyl)-1,2-benzothiazol-3-one] returned an IC50 of over 25 µM.

With `O=c1c2ccc([N+](=O)[O-])cc2sn1-c1ccccc1` [6-nitro-2-phenyl-1,2-benzothiazol-3-one], the IC50 was over 25 µM.

`O=C1c2cccc(Br)c2SCN1c1ccccc1` [8-bromanyl-3-phenyl-2H-1,3-benzothiazin-4-one] registered an IC50 of over 25 µM.

Molecule `COc1ccc(NC(=O)Cn2sc3ccccc3c2=O)cc1` [KSC-4-269] gave an IC50 of over 25 µM.

For `COc1ccc(-n2sc3ccccc3c2=O)cc1` [KSC-6-098], the IC50 was over 25 µM.

Molecule `CC(=O)Nc1ccc2sn(-c3ccccc3)c(=O)c2c1` [KSC-6-110] had an IC50 of over 25 µM.

Take `O=c1c2cc(Br)ccc2sn1-c1ccccc1` [KSC-6-175]: the IC50 is over 25 µM.

The molecule `COc1ccc(NC(=O)c2ccccc2C(=O)O)cc1` [KSC-6-244] showed an IC50 of over 25 µM.

`COc1ccc(C(=O)Nc2cc(Cl)ccc2[N+](=O)[O-])cc1` [KSC-6-266] yielded an IC50 of over 25 µM.

Take `COc1ccc(C(=O)Nc2cc(Cl)ccc2C#N)cc1` [KSC-6-267]: the IC50 was over 25 µM.

By IC50 is commonly meant the concentration that inhibits the measured activity by half.
